Measured values taken from paper PMC13266636 (ACS Medicinal Chemistry Letters, 2026).

Assays:
Assay in all cases: stopped-flow CO2 hydration assay
Assay type in all cases: biochemical
Conditions in all cases: read-out: Topiramate; mean of […] assays, errors […]
[1] = target: T1, hCA XIV (Homo sapiens, UniProt Q9ULX7)
T1 construct: gene CA14

[2] = target: T2, hCA VI (Homo sapiens, UniProt P23280)
T2 construct: gene CA6

[3] = target: T3, hCA IX (Homo sapiens, UniProt Q16790)
T3 construct: gene CA9; tumor-associated isoform

[4] = target: T4, hCA XIII (Homo sapiens, UniProt Q8N1Q1)
T4 construct: gene CA13; cytosolic isoform
T4 sequence (Q8N1Q1 whole entry, canonical isoform): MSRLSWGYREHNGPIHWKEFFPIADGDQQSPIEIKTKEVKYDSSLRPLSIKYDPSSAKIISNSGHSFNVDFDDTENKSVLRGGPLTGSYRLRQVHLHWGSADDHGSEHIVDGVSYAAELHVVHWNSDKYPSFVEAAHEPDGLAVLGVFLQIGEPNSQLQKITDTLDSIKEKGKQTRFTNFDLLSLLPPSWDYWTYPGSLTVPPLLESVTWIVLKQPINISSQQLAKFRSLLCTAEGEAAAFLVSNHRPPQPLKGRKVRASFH

T1 sequence (Q9ULX7 16-290 limits assumed): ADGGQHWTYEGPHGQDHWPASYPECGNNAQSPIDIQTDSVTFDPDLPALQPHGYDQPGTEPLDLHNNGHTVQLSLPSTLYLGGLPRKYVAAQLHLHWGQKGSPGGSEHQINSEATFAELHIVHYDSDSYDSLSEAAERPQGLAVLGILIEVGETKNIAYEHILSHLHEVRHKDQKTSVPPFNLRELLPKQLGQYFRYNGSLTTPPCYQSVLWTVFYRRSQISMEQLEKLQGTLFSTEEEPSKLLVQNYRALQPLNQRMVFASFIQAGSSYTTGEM
T2 sequence (P23280 18-308): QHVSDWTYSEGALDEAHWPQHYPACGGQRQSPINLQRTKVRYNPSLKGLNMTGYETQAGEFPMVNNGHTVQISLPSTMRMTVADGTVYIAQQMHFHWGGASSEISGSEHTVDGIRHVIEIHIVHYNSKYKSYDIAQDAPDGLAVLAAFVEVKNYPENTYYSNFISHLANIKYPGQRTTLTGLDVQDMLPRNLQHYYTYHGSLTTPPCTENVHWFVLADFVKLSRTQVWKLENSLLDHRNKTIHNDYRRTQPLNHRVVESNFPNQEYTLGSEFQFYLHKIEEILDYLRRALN

CC1(C)O[C@@H]2[C@@H](CO[C@@]3(COS(N)(=O)=O)OC(C)(C)O[C@@H]23)O1 [Topiramate]
Ki [1]: 1460 nM
Ki [2]: 45 nM
Ki [4]: 47 nM
